Laboratory results reported in publication PMC12306498, “Microwave-assisted synthesis of tubulin assembly inhibitors as anticancer agents by aryl ring reversal and conjunctive approach” (RSC Medicinal Chemistry, 2025).
“And” between values parts separate entries of the source, which are not always exact repeats. Equal values may be shown once. “Also recorded” adds a separate entry of the source. Read-outs that look alike come from different tables or passages of the source.

Key:
tubulin [1] = experiment: Inhibition of tubulin polymerization (tubulin assembly, turbidity at 350 nm); type: biochemical; conditions: tubulin at 10 μM, read-out: Tubulin IC50 ± SD
Experimental: The assembly reaction mixtures contained 0.8 M monosodium glutamate (pH 6.6 with HCl in a 2 M stock solution), 10 μM tubulin, 4% (v/v) DMSO, and varying concentrations of drug. Following a 15 min preincubation at 30 °C, samples were chilled on ice, GTP to 0.4 mM was added, and turbidity development was followed at 350 nm in a temperature-controlled recording spectrophotometer for 20 min at 30 °C. The extent of reaction was measured. Full experimental details were previously described.[35]

tubulin [2] = experiment: Inhibition of [3H]colchicine binding to tubulin; conditions: for Colch. binding (% ± SD): inhibition of [3H]colchicine binding, tubulin, [3H]colchicine, inhibitor at 1, 5 and 5 μM
Experimental: The reaction mixtures contained 1.0 μM tubulin, 5.0 μM [^3H]colchicine, and 5.0 or 1.0 μM inhibitor, as indicated, and were incubated for 10 min at 37 °C. Complete details were described previously.[36]

[3] = system: MCF-7 human breast carcinoma cells; experiment: MCF-7 cell growth inhibition; type: cell-based; conditions: read-out: MCF-7 IC50 ± SD
[4] = system: HCT116 colon cancer cells; experiment: HCT116 cell viability (MTS assay); type: cell-based; conditions: inhibition of growth of HCT116 colon cancer cells, incubation time 48 h
Experimental: (§1) MCF-7 breast carcinoma cells were obtained from the National Cancer Institute drug screening laboratory. HCT116 cell line was grown in Dulbecco's modified Eagle's medium (DMEM). BX-PC3 cells were grown in RPMI-1640 medium. Both media were supplemented with 10% fetal bovine serum (FBS), 100 U mL^−1 penicillin, […] streptomycin and 1% of L-glutamine. Cell lines were cultured at 37 °C in 5% CO2 and 95% air in a humidified incubator. T-ALL (Jurkat) cells were grown in RPMI-1640 medium. Both media were supplemented with 115 units per mL of penicillin G, 115 μg mL^−1 of streptomycin, and 10% fetal bovine serum (FBS, all purchased from Invitrogen, Milan, Italy). Cancer cells were seeded in tissue treated, flat bottom, 384-well plates (Corning, Corning, NY, USA) in 24 μL of complete medium per well, using a Microlab STAR 96-CORE liquid handling system (Hamilton Bonaduz, Bonaduz, Switzerland).
(§2) Cell viability of HCT116 and BX-PC3 cells was determined using the 3-(4,5-dimethylthiazol-2-yl)-5-(3-carboxymethoxyphenyl)-2-(4-sulfophenyl)-2H-tetrazolium (MTS) colorimetric assay.[38] […] After 48 h of growth, the MTS reagent was added to each well and absorbance at […] was measured by a microplate reader (Victor, PerkinElmer). The results were expressed as % relative to control cells (100%) and IC50 values were calculated using GraphPad Prism statistics software by nonlinear regression analysis.

[5] = system: BX-PC3 pancreatic cancer cells; experiment: BX-PC3 cell viability (MTS assay); type: cell-based; conditions: Homo sapiens, BXPC-3; inhibition of growth of BX-PC3 pancreatic cancer cells; incubation time 48 h
Experimental: as §1, §2

[6] = system: Jurkat T lymphocyte cancer cells; experiment: Jurkat (T-ALL) cell viability (resazurin assay); type: cell-based; conditions: Homo sapiens, 96 h, inhibition of growth of Jurkat T lymphocyte cancer cells, incubation time 96 h
Experimental: as §1, with “Cancer cells were seeded in tissue treated, flat bottom, 384-well plates (Corning, Corning, NY, USA) in 24 μL of complete medium per well, using a Microlab STAR 96-CORE liquid handling system (Hamilton Bonaduz, Bonaduz, Switzerland).” left out
For T-ALL, drug stock solutions were prepared for each compound by dissolving them at 10 mM in DMSO. […] The fluorescence signal was measured at 590 nm using a Spark 10 M spectrophotometer (Tecan Group Ltd., Mannedorf, Switzerland). Only plates with Z′ > 0.5 were further analyzed for the drug screening. Raw data were normalized according to the following equation: cell viability (%) = (x − POS)/(NEG − POS) × 100, where x is the relative fluorescence units (RFU) collected from each single well, NEG is the mean of intraplate negative controls (DMSO, corresponding to 100% cell viability), and POS is the mean of intraplate positive controls (benzethonium chloride 75 μM, equal to 0% cell viability). […]

BX-PC3 spheroids = experiment: 3D culture (spheroids) from BX-PC3 cells; type: cell-based; conditions: 320 nM for 48 h
Experimental: (§3) 3D culturing of BX-PC3 and HCT116 cells were performed seeding 500 cells/well into ultra-low attachment 96-well round-bottomed plates and cultured in supplemented RPMI and DMEM, respectively, at 37 °C under […] atmosphere for 7 days, until spheroids were formed. To evaluate the effect of compound 4 on spheroid growth, a range of doses (10–320 nM) was added to the cell suspension after spheroid formation, and the culture was maintained for 48 h. Spheroid diameters wwere measured using the ZEISS ZEN imaging software from the pictures obtained with an inverted optical microscope (Axio Vert A1, Zeiss, Oberkochen, Germany).

HCT116 spheroids = experiment: 3D culture (spheroids) from HCT116 cells; type: cell-based; conditions: 160 nM for 48 h
Experimental: as §3

[7] = Homo sapiens, MCF7, 96 h, cells grown for 96 h
[8] = Homo sapiens, MCF7, cells grown for 96 h

With `COc1cc(C(=O)c2cn(-c3cccnc3)c3ccc(Cl)cc23)cc(OC)c1OC` [Compound 26, (5-Chloro-1-(pyridin-3-yl)-1H-indol-3-yl)(3,4,5-trimethoxyphenyl)methanone] the IC50 (tubulin [1]) was 1500 ± 300 nM, the “Colch. binding (% ± SD)” value (tubulin [2]) was 23 ± 4% and the IC50 [3, 7] was 306 ± 13.4 nM.
In the case of `COc1cc(C(=O)c2cn(-c3ncccn3)cc2-c2ccc(C)cc2)cc(OC)c1OC` [Compound 14, (1-(Pyrimidin-2-yl)-4-(4-tolyl)-1H-pyrrol-3-yl)(3,4,5-trimethoxyphenyl)methanone], the IC50 (tubulin [1]) is reported as 1300 ± 40 nM, the “Colch. binding (% ± SD)” value (tubulin [2]) is reported as 54 ± 3% and the IC50 [3, 8] is reported as 170 ± 50 nM.
With `COc1cc(C(=O)c2cn(-c3ccccn3)cc2-c2ccc(C(F)(F)F)cc2)cc(OC)c1OC` [Compound 5, (1-(Pyridin-2-yl)-4-(4-(trifluoromethyl)phenyl)-1H-pyrrol-3-yl)(3,4,5-trimethoxyphenyl)methanone] the IC50 (tubulin [1]) was 2000 ± 100 nM, the “Colch. binding (% ± SD)” value (tubulin [2]) was 3.2 ± 5% and the IC50 [3, 8] was 652 ± 12.6 nM.
With `COc1ccc(-c2cn(-c3ncccn3)cc2C(=O)c2cc(OC)c(OC)c(OC)c2)cc1` [Compound 15, (4-(4-Methoxyphenyl)-1-(pyrimidin-2-yl)-1H-pyrrol-3-yl)(3,4,5-trimethoxyphenyl)methanone] the IC50 (tubulin [1]) was 1100 ± 100 nM, the “Colch. binding (% ± SD)” value (tubulin [2]) was 65 ± 5% and the IC50 [3, 8] was 95 ± 20 nM.
With `COc1cc(C(=O)c2cn(-c3ncccn3)c3ccc(Cl)cc23)cc(OC)c1OC` [Compound 27, (5-Chloro-1-(pyrimidin-2-yl)-1H-indol-3-yl)(3,4,5-trimethoxyphenyl)methanone] the IC50 (tubulin [1]) was 1000 ± 90 nM, the “Colch. binding (% ± SD)” value (tubulin [2]) was 34 ± 5% and the IC50 [3, 7] was 77 ± 10 nM.
In the case of `COc1cc(C(=O)c2cn(-c3ncccn3)c3ccc(C#N)cc23)cc(OC)c1OC` [Compound 29, 1-(Pyrimidin-2-yl)-3-(3,4,5-trimethoxybenzoyl)-1H-indole-5-carbonitrile], the IC50 (tubulin [1]) is reported as 1300 ± 70 nM, the “Colch. binding (% ± SD)” value (tubulin [2]) is reported as 42 ± 5% and the IC50 [3, 7] is reported as 230 ± 7 nM.
`COc1cc(C(=O)c2cn(-c3ccccn3)c3ccc(Cl)cc23)cc(OC)c1OC` [Compound 25, (5-Chloro-1-(pyridin-2-yl)-1H-indol-3-yl)(3,4,5-trimethoxyphenyl)methanone] was tested, and the IC50 (tubulin [1]) was 1500 ± 300 nM, the “Colch. binding (% ± SD)” value (tubulin [2]) was 36 ± 4% and the IC50 [3, 7] was 42 nM. The IC50 ([3]; cells grown for 96 h) was 41.7 ± 2.6 nM.
In the case of `COc1cc(C(=O)c2cn(-c3cccnc3)cc2-c2ccc(N(C)C)cc2)cc(OC)c1OC` [Compound 13, (4-(4-(Dimethylamino)phenyl)-1-(pyridin-3-yl)-1H-pyrrol-3-yl)(3,4,5-trimethoxyphenyl)methanone], the IC50 (tubulin [1]) is reported as 3400 ± 300 nM, the “Colch. binding (% ± SD)” value (tubulin [2]) is reported as 9.6 ± 4% and the IC50 [3, 8] is reported as 1000 ± 100 nM.
With `COc1cc(C(=O)c2cn(-c3ncccn3)cc2-c2ccc(C(F)(F)F)cc2)cc(OC)c1OC` [Compound 19, (1-(Pyrimidin-2-yl)-4-(4-(trifluoromethyl)phenyl)-1H-pyrrol-3-yl)(3,4,5-trimethoxyphenyl)methanone] the IC50 (tubulin [1]) was 2800 ± 100 nM, the “Colch. binding (% ± SD)” value (tubulin [2]) was 18 ± 4% and the IC50 [3, 8] was 530 nM.
`COc1cc(OC)cc(-c2cn(-c3ccccn3)cc2C(=O)c2cc(OC)c(OC)c(OC)c2)c1` [Compound 8, (4-(3,5-Dimethoxyphenyl)-1-(pyridin-2-yl)-1H-pyrrol-3-yl)(3,4,5-trimethoxyphenyl)methanone] was tested, and the IC50 (tubulin [1]) was 1600 ± 200 nM, the “Colch. binding (% ± SD)” value (tubulin [2]) was 21 ± 5% and the IC50 [3, 8] was 2200 ± 400 nM.
In the case of `COc1ccc(-c2cn(-c3cccnc3)cc2C(=O)c2cc(OC)c(OC)c(OC)c2)cc1` [Compound 10, (4-(4-Methoxyphenyl)-1-(pyridin-3-yl)-1H-pyrrol-3-yl)(3,4,5-trimethoxyphenyl)methanone], the IC50 (tubulin [1]) is reported as 840 ± 20 nM, the “Colch. binding (% ± SD)” value (tubulin [2]) is reported as 29 ± 0.8% and the IC50 [3, 8] is reported as 758 ± 9.3 nM.
`COc1cc(C(=O)c2cn(-c3ncccn3)cc2-c2ccc(N(C)C)cc2)cc(OC)c1OC` [Compound 22, (4-(4-(Dimethylamino)phenyl)-1-(pyrimidin-2-yl)-1H-pyrrol-3-yl)(3,4,5-trimethoxyphenyl)methanone] was tested, and the IC50 (tubulin [1]) was 680 ± 100 nM, the “Colch. binding (% ± SD)” value (tubulin [2]) was 80 ± 0.2% and the IC50 [3, 8] was 10 nM.
With `COc1cc(C(=O)c2cn(-c3ncccn3)cc2-c2ccc([N+](=O)[O-])cc2)cc(OC)c1OC` [Compound 21, (4-(4-Nitrophenyl)-1-(pyrimidin-2-yl)-1H-pyrrol-3-yl)(3,4,5-trimethoxyphenyl)methanone] the IC50 (tubulin [1]) was 1300 ± 200 nM, the “Colch. binding (% ± SD)” value (tubulin [2]) was 34 ± 1% and the IC50 [3, 8] was 450 ± 100 nM.
For `COc1cc(C(=O)c2cn(-c3ncccn3)cc2-c2ccc(F)cc2)cc(OC)c1OC` [Compound 18, (4-(4-Fluorophenyl)-1-(pyrimidin-2-yl)-1H-pyrrol-3-yl)(3,4,5-trimethoxyphenyl)methanone], the IC50 (tubulin [1]) was 2400 ± 80 nM, the “Colch. binding (% ± SD)” value (tubulin [2]) was 70 ± 1% and the IC50 [3, 8] was 150 ± 7 nM.
For `COc1ccc(-c2cn(-c3ccccn3)cc2C(=O)c2cc(OC)c(OC)c(OC)c2)cc1` [Compound 4, (4-(4-Methoxyphenyl)-1-(pyridin-2-yl)-1H-pyrrol-3-yl)(3,4,5-trimethoxyphenyl)methanone], the IC50 (tubulin [1]) was 190 ± 6 nM, the “Colch. binding (% ± SD)” value (tubulin [2]) was 78% and 78 ± 1% and the “Inhibition of [3H]colchicine binding” value (tubulin [2]; inhibitor at 1 μM, tubulin 1 μM, [3H]colchicine 5 μM) was 76%. It also gave an IC50 [3, 8] of 9.6 ± 0.8 nM, an IC50 ([4]; Homo sapiens, HCT-116, 48 h) of 18 nM and an IC50 [4] of 28 nM. The IC50 [5] was 17 nM, the IC50 [6] was 41 nM and the “Spheroid diameter and morphology” value (BX-PC3 spheroids) was “altered the morphology of treated spheroids; also recorded: significant reduction of spheroid diameter”. The “Spheroid diameter and morphology” value (HCT116 spheroids) was “altered the morphology of treated spheroids; also recorded: significant reduction of spheroid diameter”.
In the case of `COc1cc(C(=O)c2cn(-c3ccccn3)cc2-c2ccc(C)cc2)cc(OC)c1OC` [Compound 3, (1-(Pyridin-2-yl)-4-(4-tolyl)-1H-pyrrol-3-yl)(3,4,5-trimethoxyphenyl)methanone], the IC50 (tubulin [1]) is reported as 500 ± 100 nM, the “Colch. binding (% ± SD)” value (tubulin [2]) is reported as 59 ± 0.9% and the IC50 [3, 8] is reported as 1500 ± 200 nM.
